Source: patent publication US6153190A, “Erythropoietin receptor antibodies” (priority 1997, dated 2000)

What was measured:
Format in all cases: cell-based
erythropoietin (Epo) [1] = test: Inhibition of Epo-induced CFU-E colony formation; conditions: murine bone marrow CFU-E; stated for all three assays
Experimental: A third assay for measuring the ability of Epo to stimulate the differentiation of murine bone marrow cells to hemoglobin producing mature erythrocytes (CFU-E assay) was performed as described below.
Murine bone marrow cells were flushed from the femur of female B2D6F1 mice. The marrow cells (1×10^5 cells/ml final concentration) were mixed with IMDM, 25% FCS (final) and methylcellulose (0.8% final). 0.4 ml cells was plated per well of 24-well TC plate. EpoRFc (40 ul/well) samples were added and Epo (1 U/ml) was added to each well. Plates were incubated at 37° C., 5% CO2, 6% O2 for two days.
CFU-E colonies containing 8 or more red cells were counted. The mean and standard error of triplicate samples were determined and data reported as the percent of the positive (1 U/ml) Epo control. The results of this assay are illustrated in FIG. 3.

erythropoietin (Epo) [2] = test: Inhibition of Epo-induced proliferation of 32D/Epo wt cells; conditions: stated for all three assays
Experimental: Another assay was performed for the measurement of Epo activity on the proliferation of 32D/Epo wt cells (Miura, O. et al., Mol. Cell. Biol., 13:1788-1795 (1993)). 32D/Epo wt is an IL-3 dependent cell line transfected with the human Epo receptor.
This assay is performed as described in Part A above, with the modification that the each well contains 1 U/ml Epo. The results of this assay are illustrated in FIG. 2.

erythropoietin (Epo) [3] = test: Inhibition of Epo-induced proliferation of UT7-Epo cells; conditions: stated for all three assays
Experimental: An assay for the measurement of Epo activity on the proliferation of UT7Epo cells, which are dependent on Epo for growth [Komatsu et al., Blood, 82:456-464 (1993)] was performed as follows. The Epo used in the experiment is Epogen (2000 U/ml) [Amgen, Thousand Oaks, Calif.], diluted in phosphate buffered saline (PBS) and human serum albumin (HSA) for storage at 4° C. at 200 U/ml. Dilutions of cleaved EpoR or EpoRFc protein samples were made, so that final concentrations ranged from 0.001 to 100 ng/ml.
Samples of either EpoR or EpoRFc were added to wells at 10 ul/well in quadruplicate. Epo (0.2 U/ml) was added to each well. UT7Epo cells (1×10^5 cells/ml) were plated at 100 ul/well. After the plates were incubated at 37° C. for three days, 10 ul/well of ^3 H-thymidine (diluted to […] in IMDM+10% fetal calf serum (FCS)) were added to a final concentration of 10 uCi/ml. Plates were incubated at 37° C. for four hours with ^3 H-thymidine. The 96-well plates were harvested onto glass fiber filters using the Tomtec plate harvester with 10% cold TCA and cold 95% ethanol. Solid scintillant was melted onto the filters and the samples counted. The mean and standard error of quadruplicate samples was determined.
The data were reported as the percent of positive (0.2 U/ml) Epo control and are illustrated in FIG. 1.

Measured: neutralization of the biological activity of Epo

EpoR: monomeric EpoR extracellular domain protein cleaved from EpoRFc with Factor Xa
able to bind, and thereby neutralize: all assays above
